Data on two substances can be found in US20220040304A1, “A COMPOSITION FOR CANCER CELL DEATH AND ITS USE” (Industry-University Cooperation Foundation Hanyang …, priority 2018, published 2022).

Experiment [1] concerns MCF-7 cells. The experiment can be described thus: Cell death by SYTOX Green or EthD-1 and DAPI fluorescence (light irradiation or Co-h). The conditions noted are these: MCF-7, protein 10 μM 24 hours; light 10 mW/cm^2 or Co-h 150 μM over time. The experiment is classed as cell-based, human. The protocol:
MCF-7 cells were seeded at 5×10^5 cells/mL in a 96-well plate (SPL Cell Culture Plate, 96 well (SPL, Cat #30096)), and cultured at 37° C. for 24 hours (overnight). After the culture for 24 hours, the cells were washed with FBS & Phenol red-free media (RPMI), and 100 μL of an FBS-free medium containing the purified protein (final concentration: 10 μM) was added, followed by reaction at 37° C. for 24 hours.
After the reaction for 24 hours, the cells were washed with FBS & Phenol red-free media (RPMI), and then 100 μL of FBS & Phenol red-free media (RPMI) was then added.
After the reaction, 8.1 μL of FMN (final concentration: 150 μM) was added. […]
SYTOX Green or EthD-1 and DAPI fluorescence images were observed using a confocal microscope according to a protein type treated to cells and i) light irradiation time or ii) reaction time with a Co-h substrate, and cell death was confirmed by measuring relative fluorescence intensity at an excitation wavelength of 504 nm and an emission wavelength of 523 nm of SYTOX Green, and an excitation wavelength of 525 nm and an emission wavelength of 590 nm of EthD-1 using a plate reader.
Whether or not Cell death was observed by fluorescence microscopy using SYTOX Green (dead cell-specific dye, green) or EthD-1 (dead cell-specific dye, red) and DAPI (live cell-specific dye, blue).

Experiment [2] concerns MCF-7 cells. The experiment can be described thus: MTT colorimetric change and cell viability after light irradiation. The conditions noted are these: MCF-7, protein 10 μM 24 hours, light 10 mW/cm^2, no Co-h. The experiment is classed as cell-based, human. The procedure:
MCF-7 cells were seeded at 5×10^5 cells/mL in a 96-well plate (SPL Cell Culture Plate, 96 well (SPL, Cat #30096)), and cultured at 37° C. for 24 hours (overnight). After the overnight culture, the cells were washed with FBS & Phenol red-free media (RPMI, Well Gene., Korea, Cat #LM011-02), and 100 μL of an FBS-free medium containing the purified protein (final concentration: 10 μM) was added, followed by reaction at 37° C. for 24 hours. After the reaction for 24 hours, the cells were washed with FBS & Phenol red-free media (RPMI), and then 100 μL of FBS & Phenol red-free media (RPMI) was added again. After light irradiation at 10 mW/cm^2 over time, the cells were washed with FBS & Phenol red-free media (RPMI), and 100 μL of FBS & Phenol red-free media (RPMI) was added again. 10 μL of 3-(4,5-dimethylthiazol-2-yl)-2,5-diphenyltetrazolium bromide (MTT; Cell Biolabs Inc., USA; final concentration: 1×) was added, followed by reaction at 37° C. for 4 hours. 100 μL of a supernatant was removed, and 100 μL of DMSO (Sigma-Aldrich., USA) was added, followed by reaction for 10 minutes. The colorimetric change of MTT according to a protein type treated to the cells and light irradiation time was confirmed, and then cell viability was confirmed by measuring the absorbance intensity at 570 nm using a plate reader.

As for “MS: first protein MiniSOG, ROS-generating protein (singlet oxygen), expressed from pRSET-MiniSOG, 13 kDa [reference compound]”, the “cell death by staining (SYTOX Green or EthD-1 dead cells, DAPI live cells)” value with MCF-7 cells [1] is on record as “stained with DAPI”. For the same substance, in the experiment with MCF-7 cells [2], the “cell viability / colorimetric change of MTT with light irradiation time” value is listed as “alive”.

On to “RLuc8-MS: fusion protein of RLuc8 and MiniSOG without lead peptide, 53 kDa”, for which the “cell death by staining (SYTOX Green or EthD-1 dead cells, DAPI live cells)” value with MCF-7 cells [1] was “stained with DAPI”. For the same substance, in the experiment on MCF-7 cells [2], the “cell viability / colorimetric change of MTT with light irradiation time” value is given as “alive”.
